Data reported in patent US20250387360A1, “Methods and Compositions for Treatment of Addiction” (University of Connecticut, priority 2024, published 2025).
“Also recorded” adds a separate entry of the source.

Columns and labels:
Type in all cases: in vivo, mouse
[1] = Daily body weight, food and fluid intake monitoring; settings: 10-day supplementation
Text: Male C57BL/6J mice, (RRID: IMSR_JAX: 000664), aged 6-8 weeks, were obtained from Jackson Laboratories (ME, U.S.A) for the study. The mice were housed individually under a reversed 12-hours light/dark cycle, with lights off from […] to 7:00 am. A minimum acclimation period of 2 weeks was provided for all animals before they were randomly assigned to their respective groups. Mice had free access to food (Irradiated chow, Teklad global 18% protein rodent diet, 2918, Inotiv, WI, U.S.A) and deionized water to acclimate to the testing environment. Body weight and daily food and fluid intake were monitored and noted for all animal experiments.
The food intake was assessed by providing a pre-weighed amount of food in their cage hopper and then weighing the remaining food inside the cage and in the hopper daily. To assess daily fluid intake, the sodium valerate and NaCl bottles were pre-weighed, and the remaining amount was deducted after the measurement period. Food and fluid intakes were normalized to mouse body weight by dividing the average intake by the average body weight.

female mice = experiment: 4-day DID regimen in young female mice; settings: n=7/group, same DID protocol, vs vehicle control
Description: A standard 4-day drinking in the dark (DID) model was used to evaluate binge-like ethanol drinking patterns in mice. A 20% v/v ethanol solution was prepared by diluting 190-proof ethyl alcohol (Sigma, MO, U.S.A) with deionized water. During days 1-3, the water bottles were temporarily removed during the dark cycle of the mice, and the mice were provided with a tube containing the 20% v/v ethanol solution for a duration of two hours. On day four, the assessment of binge-like ethanol consumption took place, where the mice were given access to the 20% v/v ethanol solution for a period of four hours. The volume of fluid in the tube (read to the closest 100 μL) was measured immediately upon placement, and at two hours and four hours into the test. Following the completion of the four hours test, approximately 100 μL of blood was collected through cardiac puncture after CO2 euthanasia. Blood samples were subjected to centrifugation at 10,000 rpm for 10 minutes. The determination of blood ethanol concentrations (BEC) was performed using an Analox AMI Analyzer (Analox Instruments, MA, U.S.A). The quantity of ethanol consumed was then calculated as grams per kilogram of the mouse's body weight.

gut microbiome = experiment: 16S rRNA sequencing of stool and gut-brain module analysis; settings: stool
Description: Microbial genomic DNA extraction from mouse stool samples was carried out using the Quick-DNA Fecal/Soil Microbe 96 Kit (Zymo Research, CA, U.S.A) following the manufacturer's protocols. The hypervariable region V4 of the bacterial 16S rRNA gene, 515F (5′-[sequence]-3′ (SEQ ID NO: 1)) and 806R (5′-[sequence]-3′ (SEQ ID NO: 2)) was amplified and sequenced on the Illumina MiSeq platform (2×250 bp) (Illumina, CA, U.S.A). The raw sequencing reads were processed via the DADA2 V1.16 (RRID:SCR_023519) data processing pipeline to generate amplicon sequence variants (ASVs). Taxonomic assignments were made using the Silva database V138.1 (RRID:SCR_006423), with a classification confidence threshold set at p<0.5 for assigning unclassified taxa at their respective taxonomical levels. PCR negative controls and extraction controls for DNA extraction and sequencing were included in the analysis. […] Sequencing reads from all the samples were rarified to 10,000 reads per sample. […] All of the microbiome analysis was done in R.
16S rRNA gene sequencing of stool samples collected before and after sodium valerate treatment (n=7 mice/group) was performed. […] Permutational multivariate analysis of variance (PERMANOVA) tests were performed on CLR-transformed data to test for beta-diversity differences between sodium valerate and NaCl-supplemented groups (n=14 mice/group).

[2] = tested on: acetylation of histone H3 and H4 in the amygdala; experiment: Histone H3 and H4 acetylation ELISA in amygdala; settings: n=7 mice/group, vs NaCl
Description: Amygdala samples were thawed, and the histone fractions were prepared using a commercial histone extraction kit (Abcam, Cambridge, UK) following manufacturers instruction. The bulk acetylation of histone H3 and H4 was determined using commercial ELISA kits according to the manufacturer's instructions (Abcam, Cambridge, UK). The OD of the samples was measured using a 96 well plate reader at 450 nm (iMark™ Microplate Absorbance Reader; Biorad, CA, USA). The amounts of acetyl histone H3 and H4 were measured by comparing to the kit supplied standards.
The total acetylation levels of histone H3 and H4 were quantified in the amygdala of mice subjected to the DID paradigm following supplementation with sodium valerate or NaCl (n=7 mice/group).

C57BL/6J mice = experiment: Open field activity test (anxiety-like behavior); settings: after 10 days supplementation, 10 min exploration, n=10 mice/group
Description: The open field activity test was conducted to assess the impact of sodium valerate supplementation on exploratory and anxiety-like behavior. This test is a widely used method for analyzing locomotor ability and anxiety-related emotional behaviors in C57BL/6J mice. The open field activity chamber, constructed from white Plexiglass and illuminated with daylight, had dimensions of 37.5 cm height×40 cm length×40 cm width. General locomotor activity was recorded for 10 min by an overhead camera and analyzed using an automated video tracking system (ANY-maze v.4.6, Stoelting, IL, U.S.A, RRID:SCR_014289). The primary variables of interest included the total distance traveled (cm), the number of entries in the center area (20 cm length×20 cm width), and the percentage of time spent in the center area of the open field.
The effects of sodium valerate and NaCl was examined on anxiety-like behavior (n=10 mice/group) after 10 days of supplementation by open-field activity test.

CCCCC(=O)[O-].[Na+] [sodium valerate]
body weight vs NaCl group ([1]; n=10 mice/group): did not differ significantly; also recorded: did not affect
fluid intake (intake of sodium valerate and NaCl) vs NaCl group ([1]; n=14 mice/group): no statistical difference; also recorded: did not affect
food consumption vs NaCl group ([1]; n=14 mice/group): no statistical difference; also recorded: did not affect
alcohol binge drinking in female mice (female mice): significantly reduced
blood ethanol levels in female mice (female mice): significantly reduced
abundance of Ileibacterium genera (gut microbiome; 10 days supplementation, adjusted p=0.24, unadjusted p=0.004): increase in abundance
beta-diversity between sodium valerate and NaCl groups (gut microbiome; after 10 days of supplementation, PERMANOVA/PCA): increased dissimilarity
Dubosiella abundance, log2Fold change (gut microbiome; after 10 days supplementation, DESeq2, adjusted p=9.46E-5): 7.84
increase in H3 acetylation in the amygdala [2]: not statistically significant
H4 acetylation in the amygdala ([2]; p<0.01): significantly increased
distance travelled (C57BL/6J mice): did not lead to a significant change
number of entries in center (mean±SD) (C57BL/6J mice; p=0.01 vs NaCl): 57.50±5.48
percentage of time spent in center area (mean±SD) (C57BL/6J mice; p=0.03 vs NaCl): 15.29±4.82
